According to ChEMBL document CHEMBL1201862, “PubChem BioAssay data set” (2004):
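Growth conditions: 96-well plates. Treatment: test compound, 48 hours, 5 concentrations. Analysis: linear interpolation between bracketing concentrations; unreached endpoints set to highest concentration. GI50: concentration for 50% inhibition of growth.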 Activity calls are given as the source filed them. Cut-off read from the data, not from the text of the source: active = GI50 up to about 1.1 µM and inactive = higher.

What was measured:
Assay in all cases: NCI tumour cell line growth inhibition, 48 h
ACHN = test system: ACHN
EKVX = test system: EKVX
HOP-92 = test system: HOP-92
IGROV-1 = test system: IGROV-1
K562 = test system: K562
LOX IMVI = test system: LOX IMVI
MCF7 = test system: MCF7
MDA-MB-435 = test system: MDA-MB-435
MDA-N = test system: MDA-N
OVCAR-4 = test system: OVCAR-4
RPMI-8226 = test system: RPMI-8226
RXF 393 = test system: RXF 393
SF-268 = test system: SF-268
SF-539 = test system: SF-539
SR = test system: SR
SW-620 = test system: SW-620
UACC-62 = test system: UACC-62
UO-31 = test system: UO-31
A498 = test system: A498
NCI-H460 = test system: NCI-H460

Measured: GI50

CCOC(=O)C(NCc1ccc2c(c1)OCO2)(NC(=O)c1ccccc1)C(F)(F)F (stereo unspecified)
inactive: ACHN > 100 µM | EKVX 86.1 µM | HOP-92 41.9 µM | IGROV-1 > 100 µM | K562 44.4 µM | LOX IMVI > 100 µM | MCF7 60.3 µM | MDA-MB-435 > 100 µM | MDA-N > 100 µM | OVCAR-4 76.7 µM | RPMI-8226 34.7 µM | RXF 393 > 100 µM | SF-268 > 100 µM | SF-539 > 100 µM | SR 36 µM | SW-620 > 100 µM | UACC-62 > 100 µM | UO-31 51.3 µM

CCCC#CCOC(=O)c1cc([N+](=O)[O-])cc([N+](=O)[O-])c1
inactive: A498 > 100 µM | ACHN > 100 µM | EKVX > 100 µM | HOP-92 > 100 µM | IGROV-1 > 100 µM | K562 > 100 µM | LOX IMVI > 100 µM | MCF7 > 100 µM | MDA-MB-435 41.4 µM | MDA-N 47.3 µM | NCI-H460 > 100 µM | RPMI-8226 > 100 µM | SF-268 > 100 µM | SF-539 > 100 µM | SR > 100 µM | SW-620 > 100 µM | UACC-62 > 100 µM | UO-31 > 100 µM

O=C1CSC(c2c[nH]c3ccccc23)N1c1ccc(Cl)cc1Cl (stereo unspecified)
inactive: EKVX > 100 µM | HOP-92 > 100 µM | IGROV-1 > 100 µM | K562 > 100 µM | LOX IMVI > 100 µM | MCF7 > 100 µM | MDA-MB-435 > 10 µM | MDA-N > 100 µM | NCI-H460 > 100 µM | OVCAR-4 > 100 µM | RPMI-8226 > 100 µM | RXF 393 > 100 µM | SF-268 > 100 µM | SF-539 > 100 µM | SR > 100 µM | SW-620 > 100 µM | UACC-62 > 100 µM | UO-31 > 100 µM

O=C(c1cccs1)N(C(=O)N1CCN(c2ccccc2)CC1)S(=O)(=O)c1ccccc1
inactive: A498 62.2 µM | ACHN 19.3 µM | EKVX 16.7 µM | HOP-92 22.9 µM | K562 25.1 µM | MCF7 27.4 µM | MDA-MB-435 25.2 µM | MDA-N 19.3 µM | NCI-H460 28.2 µM | OVCAR-4 34.7 µM | SF-268 27.3 µM | SF-539 17.9 µM | SR 21.8 µM | SW-620 31.5 µM | UACC-62 17.6 µM | UO-31 18.5 µM

COC(=NC(C)C)NC(C)C
inactive: A498 > 100 µM | ACHN > 100 µM | EKVX > 100 µM | HOP-92 > 100 µM | IGROV-1 > 100 µM | K562 > 100 µM | LOX IMVI > 100 µM | MCF7 > 100 µM | MDA-MB-435 > 100 µM | MDA-N > 100 µM | NCI-H460 > 100 µM | RPMI-8226 > 100 µM | SF-268 > 100 µM | SF-539 > 100 µM | SR 77.3 µM | SW-620 > 100 µM | UACC-62 > 100 µM | UO-31 > 100 µM

CC1CCc2sc3nc(S)n(C)c(=O)c3c2C1 (stereo unspecified)
inactive: ACHN 37.3 µM | EKVX 19 µM | HOP-92 17.7 µM | IGROV-1 37.4 µM | K562 42.2 µM | LOX IMVI 33.7 µM | MCF7 35.5 µM | MDA-MB-435 50.5 µM | MDA-N 44 µM | NCI-H460 35.4 µM | OVCAR-4 35.2 µM | RPMI-8226 36.7 µM | RXF 393 57.9 µM | SF-268 48.1 µM | SR 34 µM | SW-620 39.2 µM | UACC-62 33.7 µM | UO-31 18.3 µM

COC(=O)c1ccc(CN2CCc3c([nH]c4ccccc34)C2CO)o1 (stereo unspecified)
inactive: EKVX > 10 µM | HOP-92 > 10 µM | IGROV-1 > 10 µM | K562 > 10 µM | MCF7 > 10 µM | MDA-MB-435 > 10 µM | MDA-N > 10 µM | OVCAR-4 > 10 µM | RPMI-8226 > 10 µM | RXF 393 > 10 µM | SF-268 > 10 µM | SR > 10 µM | SW-620 > 10 µM | UACC-62 > 10 µM

c1ccc(C2=NCCc3cc4c(cc32)OCO4)cc1
inactive: A498 > 100 µM | EKVX > 100 µM | IGROV-1 > 100 µM | LOX IMVI > 100 µM | MCF7 > 100 µM | MDA-MB-435 > 100 µM | MDA-N > 100 µM | OVCAR-4 > 100 µM | RXF 393 > 100 µM | SF-268 > 100 µM | SF-539 > 100 µM | SR > 100 µM | SW-620 > 100 µM | UACC-62 > 100 µM

OCC(O)COCn1cc(Cn2ncc3c(NCc4ccccc4)ncnc32)nn1 (stereo unspecified)
inactive: A498 > 100 µM | ACHN > 100 µM | EKVX > 100 µM | HOP-92 > 100 µM | IGROV-1 > 100 µM | LOX IMVI > 100 µM | MCF7 > 100 µM | MDA-MB-435 > 100 µM | MDA-N > 100 µM | OVCAR-4 > 100 µM | RPMI-8226 > 100 µM | SF-268 17.7 µM | SF-539 > 100 µM | SR > 100 µM | SW-620 > 100 µM | UACC-62 > 100 µM | UO-31 > 100 µM

COc1cc(OCc2nc3ccccc3n3cccc23)cc(OC)c1OC
inactive: A498 > 87.5 µM | ACHN 21.6 µM | EKVX 14.8 µM | HOP-92 10 µM | IGROV-1 20.3 µM | K562 3.86 µM | LOX IMVI 22.2 µM | MCF7 3.61 µM | MDA-MB-435 16 µM | MDA-N 19.4 µM | NCI-H460 20.5 µM | OVCAR-4 10.8 µM | RPMI-8226 1.34 µM | RXF 393 > 100 µM | SF-268 41.9 µM | SF-539 24.8 µM | SW-620 8.34 µM | UACC-62 13.8 µM | UO-31 28.1 µM

COc1cccc(CSCC(=O)O)c1
inactive: A498 > 100 µM | ACHN > 100 µM | EKVX > 100 µM | HOP-92 > 100 µM | IGROV-1 > 100 µM | K562 > 100 µM | LOX IMVI > 100 µM | MCF7 > 100 µM | MDA-MB-435 > 100 µM | MDA-N > 100 µM | NCI-H460 > 100 µM | OVCAR-4 > 100 µM | RPMI-8226 > 100 µM | RXF 393 > 100 µM | SF-268 > 100 µM | SF-539 > 100 µM | SW-620 > 100 µM | UACC-62 > 100 µM | UO-31 > 100 µM

COc1cc(CNc2nc3cc(C(F)(F)F)ccc3nc2C)cc(OC)c1OC
inactive: ACHN 13.6 µM | EKVX 17 µM | IGROV-1 14.7 µM | K562 23 µM | LOX IMVI 13.9 µM | MCF7 > 10 µM | MDA-MB-435 19.5 µM | MDA-N 15.8 µM | NCI-H460 16.3 µM | RPMI-8226 11.7 µM | RXF 393 16.6 µM | SF-268 25.6 µM | SF-539 21.6 µM | SR 14.5 µM | SW-620 17.1 µM | UACC-62 7.96 µM | UO-31 17.7 µM
